We go through twelve compounds from PubChem BioAssay (NCI).

Among the test systems are UACC-257 melanoma; MDA-MB-435; 786-0 renal; HOP-62 NSCLC; HL-60(TB) leukemia; U251 CNS; SW-620 colon; NCI/ADR-RES ovarian; NCI-H23 lung; K-562 leukemia.
Experiment in all cases: DTP human tumour cell line panel, 48 h

Several values for one entry are separate records, joined by “and”; a condition that tells them apart may be missing. Identical values can stand only once.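 Values below derive from 48-hour exposures of cells grown in 96-well plates, with endpoints linearly interpolated between the two concentrations bracketing the appropriate inhibition level. GI50 is the concentration that inhibits growth by half. Definition used: TGI = concentration required for complete inhibition of growth.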 Bounds are passed on as bounds.

The term GI50 denotes the concentration at which growth is held to half of that of the control. Broadly, the TGI is the concentration giving total growth inhibition. `O=C(c1ccco1)c1c(C(F)(F)F)nc2cc(C(F)(F)F)ccc2[n+]1[O-]`: the GI50 is more than 100 µM with UACC-257 melanoma; more than 100 µM in the assay with MDA-MB-435; 36.7 µM with 786-0 renal; 22.9 µM in the assay with HOP-62 NSCLC; more than 100 µM in the assay with HL-60(TB) leukemia; 34.7 µM with U251 CNS. Also, the GI50 was more than 100 µM with SW-620 colon, 67.2 µM in the assay on NCI/ADR-RES ovarian, 48.4 µM with NCI-H23 lung and 38.3 µM in the assay with K-562 leukemia. In addition, the TGI in the assay with UACC-257 melanoma, in the assay with MDA-MB-435, in the assay with 786-0 renal, in the assay on HOP-62 NSCLC, in the assay with HL-60(TB) leukemia and in the assay on U251 CNS was more than 100 µM each time. Also, the TGI in the assay on SW-620 colon, in the assay on NCI/ADR-RES ovarian, in the assay with NCI-H23 lung and with K-562 leukemia was more than 100 µM in each case.
`COc1cc(-c2nc(SCC(=O)Nc3ccc(C(C)=O)cc3)[nH]c(=O)c2C#N)cc(OC)c1OC`: the GI50 was 97.4 µM with UACC-257 melanoma; 24.4 µM in the assay on MDA-MB-435; 41.7 µM in the assay with 786-0 renal; 79.3 µM with HOP-62 NSCLC; 35 µM with HL-60(TB) leukemia; 55.6 µM in the assay on U251 CNS. The GI50 in the assay with SW-620 colon was 46.7 µM; in the assay on NCI/ADR-RES ovarian it was more than 100 µM; in the assay on NCI-H23 lung, more than 100 µM; with K-562 leukemia it was 37.7 µM. Moreover, the TGI in the assay on UACC-257 melanoma is more than 100 µM; in the assay on MDA-MB-435 it was 87.6 µM; in the assay with 786-0 renal, more than 100 µM; in the assay with HOP-62 NSCLC, more than 100 µM; in the assay with HL-60(TB) leukemia, more than 100 µM; in the assay with U251 CNS it was more than 100 µM. The TGI in the assay with SW-620 colon, with NCI/ADR-RES ovarian, in the assay with NCI-H23 lung and in the assay on K-562 leukemia was more than 100 µM each time.
For `O=C1C=CN(C2OC(CO)C(O)C2O)C(=O)C1` (centres undefined), the TGI in the assay with UACC-257 melanoma was more than 1940 µM; with MDA-MB-435 it was more than 2500 µM; in the assay with 786-0 renal, 1260 µM; in the assay with HOP-62 NSCLC, 625 µM and 1340 µM; in the assay with HL-60(TB) leukemia, 625 µM and > 2500 µM; in the assay on U251 CNS, 625 µM and > 2500 µM. Moreover, the TGI with SW-620 colon was 625 µM and > 2500 µM; in the assay on NCI/ADR-RES ovarian, 625 µM and > 2500 µM; in the assay on NCI-H23 lung, more than 2500 µM; in the assay with K-562 leukemia it was more than 2500 µM. Further, the GI50 with HOP-62 NSCLC is 18.7 µM; in the assay on HL-60(TB) leukemia, 6.25 µM; with U251 CNS it was 298 µM and 289 µM; in the assay with SW-620 colon, 71.4 µM; in the assay on NCI-H23 lung, > 625 µM and 356 µM.
With `O=C(Nc1cccc2cccnc12)c1ccc(N2C(=O)[C@@H]3[C@H](C2=O)[C@@H]2C=C[C@H]3C2)cc1`, the GI50 in the assay on UACC-257 melanoma is 30.5 µM; with MDA-MB-435, 32.1 µM; in the assay with 786-0 renal, more than 74.2 µM; with HOP-62 NSCLC, 36.7 µM; with HL-60(TB) leukemia, 21 µM; in the assay on U251 CNS, 16 µM. Also, the GI50 in the assay with SW-620 colon was 42 µM; in the assay with NCI/ADR-RES ovarian, 17.6 µM; in the assay on NCI-H23 lung it was 23.5 µM; in the assay with K-562 leukemia, 24.5 µM. Moreover, the TGI is more than 100 µM in the assay with UACC-257 melanoma; more than 100 µM in the assay with MDA-MB-435; more than 100 µM in the assay with 786-0 renal; more than 100 µM in the assay on HOP-62 NSCLC; 59 µM with HL-60(TB) leukemia; more than 100 µM with U251 CNS. For the same compound, the TGI in the assay on SW-620 colon is more than 100 µM; in the assay with NCI/ADR-RES ovarian, 81.2 µM; in the assay on NCI-H23 lung, more than 100 µM; in the assay on K-562 leukemia, more than 100 µM.
On to `c1ccc2cc(OCC3CO3)c(OCC3CO3)cc2c1` (centres undefined), for which the TGI was determined as 24.1 µM in the assay on UACC-257 melanoma; 21.7 µM in the assay with MDA-MB-435; 12.9 µM with 786-0 renal; 13.6 µM in the assay on HOP-62 NSCLC; 45.3 µM with HL-60(TB) leukemia; 13.9 µM in the assay on U251 CNS. In addition, the TGI in the assay with SW-620 colon was 13.9 µM; with NCI/ADR-RES ovarian, 27.3 µM; with NCI-H23 lung, 12.8 µM; with K-562 leukemia, 25.1 µM.
As for `COc1cc(C2CC(c3ccc4c(c3)OCO4)=NN2C(C)=O)cc(OC)c1OC` (centres undefined), the GI50 is more than 35.2 µM in the assay on UACC-257 melanoma; 0.183 µM with MDA-MB-435; 3.65 µM in the assay on 786-0 renal; 1.14 µM with HOP-62 NSCLC; 0.316 µM with HL-60(TB) leukemia; 0.899 µM with U251 CNS. For the same compound, the GI50 with SW-620 colon was 0.426 µM; with NCI/ADR-RES ovarian it was 0.405 µM; in the assay on NCI-H23 lung, 1.81 µM; in the assay with K-562 leukemia, 0.353 µM. Further, the TGI with UACC-257 melanoma is more than 100 µM; with MDA-MB-435 it was 0.674 µM; in the assay with 786-0 renal it was more than 100 µM; in the assay on HOP-62 NSCLC, more than 100 µM; in the assay with HL-60(TB) leukemia, 2.92 µM; in the assay with U251 CNS, more than 100 µM. For the same compound, the TGI in the assay with SW-620 colon, in the assay with NCI-H23 lung and in the assay with K-562 leukemia was more than 100 µM each time.
For `CCCC[P+](c1ccccc1)(c1ccccc1)c1ccccc1`, the GI50 was 0.61 µM in the assay on UACC-257 melanoma; 1.63 µM in the assay with MDA-MB-435; 19.5 µM with 786-0 renal; 2.55 µM in the assay with HOP-62 NSCLC; 0.955 µM in the assay with HL-60(TB) leukemia; 2.34 µM in the assay on U251 CNS. Moreover, the GI50 in the assay on SW-620 colon was 3.46 µM; in the assay with NCI/ADR-RES ovarian, more than 100 µM; in the assay with NCI-H23 lung, 2.57 µM; in the assay with K-562 leukemia, 0.577 µM. Further, the TGI in the assay with UACC-257 melanoma was 7.6 µM; in the assay on MDA-MB-435 it was 82.6 µM; in the assay on 786-0 renal, more than 100 µM; in the assay on HOP-62 NSCLC it was more than 100 µM; in the assay with HL-60(TB) leukemia, 6.91 µM; in the assay with U251 CNS it was more than 100 µM. The TGI with SW-620 colon was more than 100 µM; with NCI/ADR-RES ovarian it was more than 100 µM; with NCI-H23 lung, 32.6 µM; with K-562 leukemia it was more than 100 µM.
Regarding `O=C(Nc1cccc(C(F)(F)F)c1)c1cccc(NC2=C(Cl)C(=O)N(Cc3ccccc3)C2=O)c1`, the GI50 is 12.4 µM with UACC-257 melanoma; 8.69 µM in the assay on MDA-MB-435; 27.4 µM in the assay on 786-0 renal; 40.1 µM in the assay on HOP-62 NSCLC; 5.36 µM in the assay on HL-60(TB) leukemia; 6.17 µM in the assay on U251 CNS. The GI50 with SW-620 colon is 38.4 µM; in the assay with NCI/ADR-RES ovarian, 18.1 µM; in the assay with NCI-H23 lung, 25.4 µM; in the assay with K-562 leukemia, 3.02 µM. Further, the TGI with UACC-257 melanoma is 38.5 µM; in the assay with MDA-MB-435, more than 100 µM; with 786-0 renal it was more than 100 µM; with HOP-62 NSCLC it was more than 100 µM; in the assay with HL-60(TB) leukemia, 28.7 µM; in the assay on U251 CNS it was more than 100 µM. Moreover, the TGI in the assay on SW-620 colon is more than 100 µM; in the assay on NCI/ADR-RES ovarian, 53.5 µM; in the assay on NCI-H23 lung, 64.8 µM; with K-562 leukemia, 17.6 µM.
Take `CC(F)(F)c1cc(F)ccc1-c1sc2cc(O)ccc2c1Oc1ccc(/C=C/C(=O)O)cc1`: the GI50 is 14.2 µM in the assay with UACC-257 melanoma; 2.23 µM in the assay on MDA-MB-435; 10.2 µM in the assay with 786-0 renal; 9.03 µM in the assay with HOP-62 NSCLC; 4.44 µM in the assay on HL-60(TB) leukemia; 6.45 µM in the assay on U251 CNS. Moreover, the GI50 was 8.56 µM with SW-620 colon, 6.66 µM with NCI/ADR-RES ovarian, 15.2 µM in the assay with NCI-H23 lung and 6.7 µM with K-562 leukemia. Moreover, the TGI came out at 57.5 µM with UACC-257 melanoma; 5.51 µM with MDA-MB-435; 31.2 µM in the assay on 786-0 renal; 26.8 µM in the assay on HOP-62 NSCLC; 23.8 µM in the assay with HL-60(TB) leukemia; 23 µM in the assay on U251 CNS. For the same compound, the TGI turned out to be 24.9 µM with SW-620 colon, 40.1 µM with NCI/ADR-RES ovarian, 37.4 µM with NCI-H23 lung and 79.2 µM in the assay on K-562 leukemia.
With `CN(C)CCOc1nc2c3cccnc3cc(-c3cccc(Cl)c3)c2c2ncccc12`, the GI50 is 1.89 µM with UACC-257 melanoma; 1.5 µM in the assay with MDA-MB-435; 1.45 µM with 786-0 renal; 1.43 µM in the assay on HOP-62 NSCLC; 2.08 µM in the assay on HL-60(TB) leukemia; 1.56 µM with U251 CNS. Also, the GI50 is 0.684 µM in the assay with SW-620 colon, 1.42 µM in the assay on NCI/ADR-RES ovarian, 1.51 µM with NCI-H23 lung and 1.13 µM in the assay on K-562 leukemia. Moreover, the TGI turned out to be 3.6 µM in the assay with UACC-257 melanoma; 2.93 µM in the assay with MDA-MB-435; 2.84 µM with 786-0 renal; 3.26 µM in the assay with HOP-62 NSCLC; 4.5 µM in the assay with HL-60(TB) leukemia; 3.03 µM in the assay on U251 CNS. Moreover, the TGI is 2.19 µM in the assay on SW-620 colon, 2.82 µM in the assay with NCI/ADR-RES ovarian, 3.34 µM in the assay on NCI-H23 lung and 2.74 µM in the assay on K-562 leukemia.
On to `O=C(N=Nc1c(O)[nH]c2c(Cl)cc(Cl)cc12)c1ccncc1`, for which the TGI is 48.9 µM in the assay with UACC-257 melanoma; 33.7 µM in the assay with MDA-MB-435; 36.4 µM with 786-0 renal; 88.3 µM in the assay with HOP-62 NSCLC; more than 100 µM with HL-60(TB) leukemia; 41.6 µM in the assay on U251 CNS. For the same compound, the TGI with SW-620 colon was more than 100 µM; in the assay with NCI/ADR-RES ovarian it was 69.4 µM; in the assay on NCI-H23 lung, 56.5 µM; with K-562 leukemia, 99.5 µM.
With `CS(=O)c1ccc(-c2nc(-c3ccc(F)cc3)c(-c3ccncc3)[nH]2)cc1` (centres undefined), the GI50 in the assay with UACC-257 melanoma was 16.3 µM; in the assay with MDA-MB-435, 20.7 µM; in the assay on 786-0 renal, 16.8 µM; in the assay with HOP-62 NSCLC it was more than 100 µM; with HL-60(TB) leukemia, 23 µM; in the assay on U251 CNS, 38 µM. Further, the GI50 is 30 µM in the assay with SW-620 colon, more than 100 µM in the assay on NCI/ADR-RES ovarian, 59.2 µM in the assay on NCI-H23 lung and 25 µM with K-562 leukemia. Besides, the TGI was 41.6 µM in the assay with UACC-257 melanoma; more than 100 µM in the assay with MDA-MB-435; 38.8 µM with 786-0 renal; more than 100 µM in the assay on HOP-62 NSCLC; 53.1 µM with HL-60(TB) leukemia; more than 100 µM with U251 CNS. In addition, the TGI with SW-620 colon is more than 75 µM; in the assay on NCI/ADR-RES ovarian it was more than 100 µM; with NCI-H23 lung, more than 100 µM; in the assay with K-562 leukemia it was more than 100 µM.
